Data taken from PMC12056728 (RSC Advances, 2025).

What follows are molecules tested against α-glucosidase (E.C.3.2.1.20) (Saccharomyces cerevisiae, UniProt P53341) (assay: α-glucosidase inhibition assay). Conditions: IC50 could not be determined.
Assay type: biochemical

Chain of α-glucosidase (E.C.3.2.1.20) (P53341 whole entry): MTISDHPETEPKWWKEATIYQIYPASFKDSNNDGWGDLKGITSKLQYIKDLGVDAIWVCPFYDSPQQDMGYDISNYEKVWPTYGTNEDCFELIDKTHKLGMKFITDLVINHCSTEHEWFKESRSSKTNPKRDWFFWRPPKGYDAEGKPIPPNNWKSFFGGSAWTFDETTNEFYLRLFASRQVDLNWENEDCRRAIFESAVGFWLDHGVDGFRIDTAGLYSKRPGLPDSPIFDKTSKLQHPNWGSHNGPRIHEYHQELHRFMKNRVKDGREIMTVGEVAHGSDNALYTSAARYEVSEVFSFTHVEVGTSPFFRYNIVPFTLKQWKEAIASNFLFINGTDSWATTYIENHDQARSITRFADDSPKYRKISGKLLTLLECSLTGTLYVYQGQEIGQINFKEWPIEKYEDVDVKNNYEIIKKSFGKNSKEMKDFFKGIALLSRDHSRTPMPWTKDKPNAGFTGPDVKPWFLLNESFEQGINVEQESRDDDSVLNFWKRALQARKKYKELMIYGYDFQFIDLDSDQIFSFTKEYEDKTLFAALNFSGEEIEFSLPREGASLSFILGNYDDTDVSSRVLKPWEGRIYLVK

Row | α-glucosidase inhibitory activity (in words) | Compound
1 | complete loss of inhibitory activity | O=C(NN=C1C(=O)N(CCOc2ccc(F)cc2)c2ccccc21)c1cccnc1 [1j, N′-(1-(2-(4-Fluorophenoxy)ethyl)-2-oxoindolin-3-ylidene)nicotinohydrazide]
2 | loss of inhibitory activity | O=C(NN=C1C(=O)N(CCOc2ccc(F)cc2)c2ccccc21)c1ccncc1 [1k, N′-(1-(2-(4-Fluorophenoxy)ethyl)-2-oxoindolin-3-ylidene)isonicotinohydrazide]

Same assay, conditions: read-out: Percent inhibition (0.5 mM)

Row | inhibition at 500 µM | Compound
3 | 93.1% | O=C(NN=C1C(=O)N(CCOc2ccc(F)cc2)c2ccccc21)c1ccc(Br)cc1 [1l, 4-Bromo-N′-(1-(2-(4-fluorophenoxy)ethyl)-2-oxoindolin-3-ylidene)benzohydrazide]
4 | 92.1% | O=C(NN=C1C(=O)N(CCOc2ccc(Br)cc2)c2ccccc21)c1cccnc1 [1g, N′-(1-(2-(4-Bromophenoxy)ethyl)-2-oxoindolin-3-ylidene)nicotinohydrazide]
5 | 94.9% | O=C(NN=C1C(=O)N(CCOc2ccc(Br)cc2)c2ccccc21)c1ccc(Br)cc1 [1i, 4-Bromo-N′-(1-(2-(4-bromophenoxy)ethyl)-2-oxoindolin-3-ylidene)benzohydrazide]
6 | 89.9% | O=C(NN=C1C(=O)N(CCOc2ccc(Br)cc2)c2ccccc21)c1ccncc1 [1h, N′-(1-(2-(4-Bromophenoxy)ethyl)-2-oxoindolin-3-ylidene)isonicotinohydrazide]
7 | 36% | O=C(NN=C1C(=O)N(CCOc2ccc(F)cc2)c2ccccc21)c1cccnc1 [1j, N′-(1-(2-(4-Fluorophenoxy)ethyl)-2-oxoindolin-3-ylidene)nicotinohydrazide]
8 | 94.5% | O=C(NN=C1C(=O)N(CCOc2ccc(Cl)cc2)c2ccccc21)c1ccc(Br)cc1 [1f, 4-Bromo-N′-(1-(2-(4-chlorophenoxy)ethyl)-2-oxoindolin3ylidene)benzohydrazide]
9 | 39.3% | O=C(NN=C1C(=O)N(CCOc2ccc(F)cc2)c2ccccc21)c1ccncc1 [1k, N′-(1-(2-(4-Fluorophenoxy)ethyl)-2-oxoindolin-3-ylidene)isonicotinohydrazide]

The next lines start with the molecule.

Row | Compound | inhibition at 500 µM
10 | O=C(NN=C1C(=O)N(CCOc2ccccc2)c2ccccc21)c1ccc(Br)cc1 [1c, 4-Bromo-N′-(2-oxo-1-(2-phenoxyethyl)indolin-3-ylidene)benzohydrazide] | 90.6%
11 | O=C(NN=C1C(=O)N(CCOc2ccccc2)c2ccccc21)c1cccnc1 [1a, N′-(2-Oxo-1-(2-phenoxyethyl)indolin-3-ylidene)nicotinohydrazide] | 75.6%
12 | O=C(NN=C1C(=O)N(CCOc2ccc(Cl)cc2)c2ccccc21)c1ccncc1 [1e, N′-(1-(2-(4-Chlorophenoxy)ethyl)-2-oxoindolin-3ylidene)isonicotinohydrazide] | 94.7%
13 | O=C(NN=C1C(=O)N(CCOc2ccc(Cl)cc2)c2ccccc21)c1cccnc1 [1d, N′-(1-(2-(4-Chlorophenoxy)ethyl)-2-oxoindolin-3-ylidene)nicotinohydrazide] | 92.9%
14 | O=C(NN=C1C(=O)N(CCOc2ccccc2)c2ccccc21)c1ccncc1 [1b, N′-(2-Oxo-1-(2-phenoxyethyl)indolin-3-ylidene)isonicotinohydrazide] | 94.1%
